Where two headings read alike, the source gives them in different places.
Experiments:
Cooperia oncophora = assay: Method C: Cooperia oncophora L1 larvae in vitro; conditions: 96 h, read-out: inhibition of motility
[1] = system: microfilaria of Dirofilaria immitis; assay: Method F: microfilaria of Dirofilaria immitis, survival at 24 hours
Haemonchus contortus [2] = assay: Method D: Haemonchus contortus in vivo in Mongolian jirds; set-up: species or system Mongolian jirds (Meriones unguiculatus); conditions: po, 72 h, read-out: reduction in nematode infestation
Haemonchus contortus [3] = assay: Method A: Haemonchus contortus L1 larvae, microtitre plate screen; conditions: 96 h, read-out: motility inhibition
[4] = Method G: permeability in the Caco-2/TC7 in vitro model; conditions: human, Caco-2, pH 6.5
[5] = system: anthelmintic-resistant isolate of Haemonchus contortus; assay: Method B: anthelmintic-resistant (benzimidazole-resistant) isolate of Haemonchus contortus, conditions of method A; conditions: H. contortus isolate functionally resistant against benzimidazoles
[6] = survival of microfilaria at 24 hours

Compound | inhibition at 5 µg/mL (Cooperia oncophora) | EC50 [1, 6] | inhibition in vivo at 30 mg/kg (Haemonchus contortus [2]) | inhibition at 5 µg/mL (Haemonchus contortus [3]) | Papp A→B at 20 μM [4] | inhibition in vivo at 30 mg/kg (Haemonchus contortus [2]; in Meriones unguiculatus) | fold resistance of the isolate [5] | EC50 [1]
O=C(CO[C@H]1CC[C@H](Nc2ccc([N+](=O)[O-])c(C(F)(F)F)c2)CC1)N1CCN(CC2Cc3cc(F)ccc3O2)CC1 (some centres unmarked) [Compound 77] | ≥ 90% | < 5 µg/mL | > 90% | ≥ 90% |  |  |  | 
O=C(CO[C@H]1CC[C@H](Nc2ccc([N+](=O)[O-])c(C(F)(F)F)c2)CC1)N1CCN(Cc2nc3cc(C(F)(F)F)ccc3s2)CC1 [Compound 302, 2-[4-[4-nitro-3-(trifluoromethyl)anilino]cyclohexoxy]-1-[4-[[5-(trifluoromethyl)-1,3-benzothiazol-2-yl]methyl]piperazin-1-yl]ethanone] | ≥ 90% | < 0.1 µg/mL | > 90% | ≥ 90% |  |  |  | 
O=C(CO[C@H]1CC[C@H](Nc2ccc([N+](=O)[O-])c(C(F)(F)F)c2)CC1)N1CCN(Cc2cc3cc(F)c(F)cc3o2)CC1 [Compound 325, 2-[(4-[[4-nitro-3-(trifluoromethyl)phenyl]amino]cyclohexyl)-oxy]1-[4-(5,6-difluorobenzofuran-2-ylmethyl)piperazin-1-yl]ethan-1-one] | ≥ 90% |  | 70 to 90% | ≥ 90% | 9 ×10⁻⁶ cm/s |  |  | 
O=C(CO[C@H]1CC[C@H](Nc2ccc([N+](=O)[O-])c(C(F)(F)F)c2)CC1)N1CCN(c2nc3cc(C(F)(F)F)ccc3s2)CC1 [Compound 342, 2-[4-(4-nitro-3-trifluoromethyl-phenylamino)-cyclohexyloxy]-1-[4-(5-trifluoromethyl-benzothiazol-2-yl)-piperazin-1-yl]-ethanone] | ≥ 90% |  | > 90% | ≥ 90% |  |  |  | 
CN(c1ccc([N+](=O)[O-])c(C(F)(F)F)c1)[C@H]1CC[C@H](OCC(=O)N2CCN(CC3Cc4cc(F)ccc4O3)CC2)CC1 (some centres unmarked) [Compound 261, 1-[4-(5-fluoro-2,3-dihydro-benzofuran-2-ylmethyl)-piperazin-1-yl]-2-{4-[methyl-(4-nitro-3-trifluoromethyl-phenyl)-amino]-cyclohexyloxy}-ethanone] | ≥ 90% | < 0.1 µg/mL | > 90% | ≥ 90% | 8.2 ×10⁻⁶ cm/s |  |  | 
O=C(CO[C@H]1CC[C@H](Nc2ccc([N+](=O)[O-])c(C(F)(F)F)c2)CC1)N1CCN(Cc2nc3cc(F)ccc3s2)CC1 [Compound 235, 1-(4-((5-fluorobenzo[d]thiazol-2-yl)methyl)piperazin-1-yl)-2-(-4-(4-nitro-3-(trifluoromethyl)phenylamino)cyclohexyloxy)ethanone] | ≥ 90% | < 1 µg/mL | 70 to 90% | ≥ 90% | 13.8 ×10⁻⁶ cm/s |  |  | 
N#Cc1ccc(N[C@H]2CC[C@H](OCC(=O)N3CCN(c4ccc5cc(Cl)ccc5c4)CC3)CC2)cc1C(F)(F)F [Compound 278] | ≥ 90% | < 1 µg/mL |  | ≥ 90% |  | 70 to 90% |  | 
c1ccc2[nH]c(-c3cscn3)nc2c1 [thiabendazole] |  |  |  |  |  |  | 127 fold | 
N#Cc1ccc(N[C@H]2CC[C@H](OCC(=O)N3CCN(c4ccc5cc(C(F)(F)F)ccc5n4)CC3)CC2)cc1C(F)(F)F [Compound 273, 2-[(4-[[4-cyano-3-(trifluoromethyl)phenyl]amino]cyclohexyl)oxy]-1-[4-[6-(trifluoromethyl)quinolin-2-yl]piperazin-1-yl]ethan-1-one] | ≥ 90% | < 1 µg/mL | > 90% | ≥ 90% |  |  |  | 
O=C(CO[C@H]1CC[C@H](Nc2ccc([N+](=O)[O-])c(C(F)(F)F)c2)CC1)N1CCN(c2ccc3cc(C(F)(F)F)ccc3n2)CC1 [Compound 89, 2-[(4-[[4-nitro-3-(trifluoromethyl)phenyl]amino]cyclohexyl)oxy]-1-[4-[6-(trifluoromethyl)quinolin-2-yl]piperazin-1-yl]ethan-1-one] | ≥ 90% | < 5 µg/mL | > 90% | ≥ 90% |  |  |  | 
O=C(CO[C@H]1CC[C@H](Nc2ccc([N+](=O)[O-])c(C(F)(F)F)c2)CC1)N1CCN(Cc2cc3cc(C(F)(F)F)ccc3o2)CC1 [Compound 180, 2-[(4-[[4-nitro-3-(trifluoromethyl)phenyl]amino]cyclohexyl)oxy]-1-(4-[[5-(trifluoromethyl)-1-benzofuran-2-yl]methyl]piperazin-1-yl)ethan-1-one] | ≥ 90% | < 1 µg/mL | > 90% | ≥ 90% |  |  |  | 
CC(c1cc2cc(F)ccc2o1)N1CCN(C(=O)CO[C@H]2CC[C@H](Nc3ccc([N+](=O)[O-])c(C(F)(F)F)c3)CC2)CC1 (some centres unmarked) [Compound 304, 2-[(4-[[4-nitro-3-(trifluoromethyl)phenyl]amino]cyclohexyl)-oxy]1-[4-[1-(5-fluorobenzofuran-2-yl)ethyl]piperazin-1-yl]ethan-1-one] | ≥ 90% | < 5 µg/mL |  | ≥ 90% | 9 ×10⁻⁶ cm/s |  |  | 
N#Cc1ccc(N[C@H]2CC[C@H](OCC(=O)N3CCN(c4ccc5cc(Cl)ccc5n4)CC3)CC2)cc1C(F)(F)F [Compound 272, 2-[(4-[[4-cyano-3-(trifluoromethyl)phenyl]amino]cyclohexyl)oxy]-1-[4-(6-chloroquinolin-2-yl)piperazin-1-yl]ethan-1-one] | ≥ 90% | < 1 µg/mL | 70 to 90% | ≥ 90% |  |  |  | 
O=C(CO[C@H]1CC[C@H](Nc2ccc([N+](=O)[O-])c(C(F)(F)F)c2)CC1)N1CCN(CC2Cc3cc(C(F)(F)F)ccc3O2)CC1 (some centres unmarked) [Compound 78, 2-[(4-[[4-nitro-3-(trifluoromethyl)phenyl]amino]cyclohexyl)oxy]-1-(4-[[5-(trifluoromethyl)-2,3-dihydro-1-benzofuran-2-yl]methyl]piperazin-1-yl)ethan-1-one] | ≥ 90% | < 5 µg/mL | > 90% | ≥ 90% |  |  |  | 
O=C(CO[C@H]1CC[C@H](Nc2ccc([N+](=O)[O-])c(C(F)(F)F)c2)CC1)N1CCN(Cc2cnc3cc(C(F)(F)F)ccc3c2)CC1 [Compound 327, 2-[4-(4-nitro-3-trifluoromethyl-phenylamino)-cyclohexyloxy]-1-[4-(7-trifluoromethyl-quinolin-3-ylmethyl)-piperazin-1-yl]-ethanone] |  |  | 70 to 90% | ≥ 90% | 6.9 ×10⁻⁶ cm/s |  |  | 
CN(c1ccc(C#N)c(C(F)(F)F)c1)[C@H]1CC[C@H](OCC(=O)N2CCN(c3ccc4cc(C(F)(F)F)ccc4n3)CC2)CC1 [Compound 283, 2-[(4-[methyl[4-cyano-3-(trifluoromethyl)phenyl]amino]cyclohexyl)-oxy]1-[4-[6-(trifluoromethyl)quinolin-2-yl]-piperazin-1-yl]ethan-1-one] | ≥ 90% |  | > 90% | ≥ 90% |  |  |  | 
CN(c1ccc([N+](=O)[O-])c(C(F)(F)F)c1)[C@H]1CC[C@H](OCC(=O)N2CCN(c3ccc4cc(C(F)(F)F)ccc4n3)CC2)CC1 [Compound 245, 2-[[(1r,4r)-4-[methyl[4-nitro-3-(trifluoromethyl)phenyl]amino]cyclohexyl]oxy]-1-[4-[6-(trifluoromethyl)quinolin-2-yl]piperazin-1-yl]ethan-1-one] | ≥ 90% |  | > 90% | ≥ 90% |  |  |  | < 1 µg/mL
O=C(CO[C@H]1CC[C@H](Nc2ccc([N+](=O)[O-])c(C(F)(F)F)c2)CC1)N1CCN(Cc2ccc3cc(F)ccc3c2)CC1 [Compound 297, 2-[(4-[[4-nitro-3-(trifluoromethyl)phenyl]amino]cyclohexyl)-oxy]1-[4-(6-fluoronaphthalen-2-ylmethyl)piperazin-1-yl]ethan-1-one] | ≥ 90% | < 1 µg/mL |  | ≥ 90% | 5.7 ×10⁻⁶ cm/s |  |  | 
